Data: patent EP4559898A1, “NOVEL IONIZABLE CATIONIC LIPIDS CONTAINING THIOETHER LINKAGE” (AldexChem Kft., priority 2023, dated 2025)

Assays:
[1] = Size, PDI and Zeta potential of LNPs by dynamic light scattering; format: physicochemical; conditions: LNP formulated with tested lipid, diluted in 1x PBS pH 7.4; for Size: DOTAP, DOPE, Resveratrol, DSPE-PEG and mRNA, dialyzed; for Size / PDI: DLS
Protocol: • 1. If needed, prepare stock solutions by solving known amounts of lipid powder into an appropriate solvent. The recommended solvent is ethanol and the recommended concentration is typically in the range 10-50 mM. Higher concentrations are preferred to allow flexibility on mRNA-LNP concentration. • 2. Remove the lipid stock solutions from the -20°C freezer. For long-term storage, -80°C is used. • 3. Check the vials for precipitation, DOPE (CAS# 4004-05-1) (20 mM) and DSPE-PEG (CAS# 474922-26-4) (5mM) may need a 5-30 minute incubation step at 37°C with intermittent vortexing to resuspend all contents. […] As a last resort, lipids may be heated to 50°C to resuspend, time should be kept as short as possible to prevent oxidation or other modifying or degradative processes. • 4. Mix the lipids by vortexing for 2 minutes. • 5. […] Cooling the solution prevent excessive evaporation of ethanol or similar solvents upon opening. • 6. Meanwhile, thaw the RNA samples, including the latest SecNLuc control, by inserting the frozen tube in a room temperature aluminium block. • 7. Prepare for each LNP-formulation with identical mRNA component, an RNA master mix according to Table 1 below in a fresh tube. Use of a master mix allows more precise comparison of lipid formulations relative to each other. Split the master mix over a number of fresh tubes equal to the number of samples + controls. Each tube contains 375 µl of mRNA in 10 mM Citrate pH 4.0. • 8. Prepare for each LNP formulation with identical lipid composition a Lipid master mix according to Table 1 below in a fresh tube, exclude the lipid of interest. Use of a master mix allows more precise comparison of the novel ionizable lipid relative to each other. Split the master mix over a number of fresh tubes equal to the number of samples + controls. Each tube contains 65.5 µl of lipid master mix. • 9. Add the ionizable lipid of interest to the equally divide lipid master mix. Mix well by pipetting up and down. Label the tube according to the ionizable lipid used. • 10. Power on the L1 FM (L1 Formulation Machine uses 2 high-speed syringe pumps to mix lipids in organic solvents with mRNA in acidic aqeuous solution to generate well-defined LNPs. The microfluidic mixing chip involves a dean-type structure performing the high-efficiency mixing at a total flow rate (TFR) of around 12ml/min at a 3:1 mixing ratio) and allow it to do a calibration of motor positions. Table 1: Lipid formulation solution
• 18. Fill a fresh syringe (C) through a blunt 18G stainless steel needle with the previously prepared RNA mixture of step 6. The volume should be approximately 85% of total formulation volume + 25 µl (dead-volume). Make sure to remove all air bubbles by tapping. • 19. Fill a fresh syringe (D) through a blunt 18G stainless steel needle with the Lipid master mix. The volume should be approximately […] of total formulation volume + 25 µl (dead-volume). Again, Make sure to remove all bubbles. • 20. Attach the syringes in the correct orientation, […] • 21. Load the 'Receiving station' with appropriate sized collection containers (2 ml Eppendorf tubes). • 22. Press the microfluidic chip to the back of the machine with your thumb and hold, press the 'Button 1' (40 µg). The L1 FM pushes the total volume from the syringes in a perfect 3:1 (mRNA aqueous: lipid in EtOH) ratio through the microfluidic mixer chip with a total flow-rate of […] (Total flow rate (TFR)). • 23. Remove the sample tube from the 'Receiving station' and label the tube accordingly. • 24. Reset the machine to prepare with the next formulation.
• 25. Transfer the individual formulations to 100 kda MWCO, SpectraPor Biotech dialysis tubing, and close with designated clamps. • 26. Submerge the dialysis bags in beakers filled with 1x Phosphate-buffered saline (PBS buffer, pH 7.4, Gibco cat# 202212-019), stir at 230 RPM at room temperature. • 27. […]

[2] = Encapsulation efficiency (RiboGreen assay) of mRNA-LNPs; format: physicochemical; conditions: mRNA-LNP formulated with tested lipid; RiboGreen with/without Triton X-100
Protocol: 1. Preparation of sample stock solutions: In the top row of the 96-well plate (Row A in the plate), add 297 µL of TE buffer pH 7.4 to a single well for each sample plus a single well for a PBS blank using a multichannel pipette. TE buffer preparation:
2. Add 3 µL of sample (at 0.5mg/ml) to these wells for a final volume of 300 µL. Add 3 µL of PBS to the blank well. Pipette to mix. This is your stock solution for each sample. The final RNA concentration of these stock solutions should be approximately 4-7 µg/mL. 3. mRNA-LNP sample setup: • a. Add 50 µL of TE buffer pH 7.5 to the two wells directly below each sample (Rows B and C in the plate). • b. Add 50 µL of sample stock solution from Row A into the wells in Rows B and C (this assay is run in duplicate. All liquid handling should be done using a multichannel pipette). • c. Add 50 µL of Triton buffer to the wells in Rows D and E (in the plate) below each sample. • d. Add 50 µL of sample stock solution from Row A into the wells in Rows D and E. 4. RiboGreen RNA standard curve setup: Dilute the RNA standard to produce an RNA stock at a final concentration of 20 µg/mL in TE buffer pH 7.4. The final volume should be 150 µL. Set up a standard curve (in duplicate) as using the RNA stock (20 µg/mL siRNA), TE buffer pH 7.5, and Triton X-100 buffer according the Table 2 below. Triton X-100 buffer preparation:
5. Once samples and standard curve are plated, incubate the plate at 37°C for 10 min to lyse mRNA-LNP in the presence of Triton X-100 buffer. 6. Meanwhile, prepare RiboGreen Solution: Sum the total number of sample wells and standard curve wells. Add three to this number, and multiply the total by 100. This is the total volume, in µL, of RiboGreen Solution needed for this assay. In a 15 mL RNAse-free Falcon tube, dilute the RiboGreen Reagent 1:100 into TE buffer pH 7.5 to the total volume calculated. 7. Addition of RiboGreen Solution and sample readings: Remove a 96-well plate from 37°C incubator; let it cool to room temperature as RiboGreen binding is somewhat temperature dependent. Add 100 µL of RiboGreen Solution to each well. Pop any air bubbles with a needle. Read using fluorescent plate reader (excitation = 480, emission = 525). 8. Sample analysis: Use the data generated by the RiboGreen standard curve to calculate the concentration of mRNA.

Structure (SMILES)	Size [1]	Zeta potential [1]	PDI [1]	EE [2] [%]
CCCCCCCCC(CCCCCC)C(=O)OCCCCCCN(CCCCO)CCCCCCOC(=O)C(CCCCCC)CCCCCCCC (centres unmarked) [ALC-0315 ref., reference compound]	131,9 nm	-12,32 mV	0,007	94
CCCCCCCCCCSC(CCCC)C(=O)OCCCCCCN(CCO)CCCCCCOC(=O)C(CCCC)SCCCCCCCCCC (centres unmarked) [Example 4, ((2-hydroxyethyl)azanediyl)bis(hexane-6,1-diyl) bis(2-(decylthio)hexanoate)]	149,7 nm	-12,66 mV	0,071	85
CCCCCCCCCCSC(CCCC)C(=O)OCCCCCCCCN(CCCCO)CCCCCCCCOC(=O)C(CCCC)SCCCCCCCCCC (centres unmarked) [Example 3, ((4-hydroxybutyl)azanediyl)bis(octane-8,1-diyl) bis(2-(decylthio)hexanoate)]	185,7 nm	-9,667 mV	0,122	77
CCCCCCCCCCSC(CCCC)C(=O)OCCCCCCN(CCCCO)CCCCCCOC(=O)C(CCCC)SCCCCCCCCCC (centres unmarked) [Example 1, ((4-hydroxybutyl)azanediyl)bis(hexane-6,1-diyl) bis(2-(decylthio)hexanoate)]	226,7 nm	-10,74 mV	0,223	53
CCCCCCCCC(SCCCCC)C(=O)OCCCCCCN(CCCCO)CCCCCCOC(=O)C(CCCCCCCC)SCCCCC (centres unmarked) [Example 2, ((4-hydroxybutyl)azanediyl)bis(hexane-6,1-diyl) bis(2-(pentylthio)decanoate)]	188,2 nm	-11,48 mV	0,136	55

Next, values leading:

Size [1]	Zeta potential [1]	PDI [1]	EE [2] [%]	Structure (SMILES)
153,5 nm	-14,32 mV	0,038	86	CCCCCCCCCCSC(CCCCCC)C(=O)OCCCCCCN(CCCCO)CCCCCCOC(=O)C(CCCCCC)SCCCCCCCCCC (centres unmarked) [Example 8, ((4-hydroxybutyl)azanediyl)bis(hexane-6,1-diyl) bis(2-(decylthio)octanoate)]
167,3 nm	-13,37 mV	0,144	67	CCCCCCCSC(CCCCCC)C(=O)OCCCCCCN(CCCCO)CCCCCCOC(=O)C(CCCCCC)SCCCCCCC (centres unmarked) [Example 9, ((4-hydroxybutyl)azanediyl)bis(hexane-6,1-diyl) bis(2-(heptylthio)octanoate)]
126,0 nm	-11,48 mV	0,013	90	CCCCCCCCC(SCCCCCCC)C(=O)OCCCCCCN(CCCCO)CCCCCCOC(=O)C(CCCCCCCC)SCCCCCCC (centres unmarked) [Example 6, ((4-hydroxybutyl)azanediyl)bis(hexane-6,1-diyl) bis(2-(heptylthio)decanoate)]
291,8 nm	-9,117 mV	0,169	96	CCCCCCCCCCSC(CCCC)C(=O)OCCCCCCN(CCCCCCOC(=O)C(CCCC)SCCCCCCCCCC)CCC1CCCN1C (centres unmarked) [Example 5, ((2-(1-methylpyrrolidin-2-yl)ethyl)azanediyl)bis(hexane-6,1-diyl) bis(2-(decylthio)hexanoate)]
152,7 nm	-15,85 mV	0,022	92	CCCCCCCCCCSC(CCCCCCCC)C(=O)OCCCCCCN(CCCCO)CCCCCCOC(=O)C(CCCCCCCC)SCCCCCCCCCC (centres unmarked) [Example 7, ((4-hydroxybutyl)azanediyl)bis(hexane-6,1-diyl) bis(2-(decylthio)decanoate)]
203,9 nm	-9,983 mV	0,014	83	CCCCCCCCCCCCCCSCC(=O)OCCCCCCN(CCCCO)CCCCCCOC(=O)CSCCCCCCCCCCCCCC [Example 10, ((4-hydroxybutyl)azanediyl)bis(hexane-6,1-diyl) bis(2-(tetradecylthio)acetate)]
